From patent publication US7220756B2, “N-sulfonylheterocyclopyrrolyl-alkylamine compounds as 5-hydroxytryptamine-6 ligands” (Wyeth, priority 2003, dated 2007)

Target: T1, human cloned 5-HT6 receptors (Homo sapiens, UniProt P50406)
T1 construct: expressed in transfected cells; host or cells: HeLa cells
Assay: 5-HT6 binding affinity, [3H]-LSD displacement
Settings: membranes of Hela cells expressing human cloned 5-HT6 receptors; [3H]-LSD 3.0 nM; 120 min, room temperature; read-out: 5-HT6 Binding Ki
Protocol: The affinity of test compounds for the serotonin 5-HT6 receptor is evaluated in the following manner. Cultured Hela cells expressing human cloned 5-HT6 receptors are harvested and centrifuged at low speed (1,000×g) for 10.0 min to remove the culture media. The harvested cells are suspended in half volume of fresh physiological phosphate buffered saline solution and recentrifuged at the same speed. This operation is repeated. The collected cells are then homogenized in ten volumes of 50 mM Tris.HCl (pH 7.4) and 0.5 mM EDTA. The homogenate is centrifuged at 40,000×g for 30.0 min and the precipitate is collected. The obtained pellet is resuspended in 10 volumes of Tris.HCl buffer and recentrifuged at the same speed. The final pellet is suspended in a small volume of Tris.HCl buffer and the tissue protein content is determined in aliquots of 10–25 μl volumes. Bovine Serum Albumin is used as the standard in the protein determination according to the method described in Lowry et al., J. Biol. Chem., 193:265 (1951). The volume of the suspended cell membranes is adjusted to give a tissue protein concentration of 1.0 mg/ml of suspension. The prepared membrane suspension (10 times concentrated) is aliquoted in 1.0 ml volumes and stored at −70° C. until used in subsequent binding experiments.
The reaction is allowed to proceed in the dark for 120 min at room temperature, at which time, the bound ligand-receptor complex is filtered off on a 96 well unifilter with a Packard Filtermate® 196 Harvester. The bound complex caught on the filter disk is allowed to air dry and the radioactivity is measured in a Packard TopCount® equipped with six photomultiplier detectors, after the addition of 40.0 μl Microscint®−20 scintillant to each shallow well. The unifilter plate is heat-sealed and counted in a PackardTopCount® with a tritium efficiency of 31.0%.
Binding in the presence of varying concentrations of test compound is expressed as a percentage of specific binding in the absence of test compound. The results are plotted as log % bound versus log concentration of test compound. […] A linear regression line of data points is plotted, from which the IC50 value is determined and the Ki value is determined based upon the following equation: Ki=IC50/(1+L/KD) where L is the concentration of the radioactive ligand used and KD is the dissociation constant of the ligand for the receptor, both expressed in nM.

T1 sequence (P50406 whole entry): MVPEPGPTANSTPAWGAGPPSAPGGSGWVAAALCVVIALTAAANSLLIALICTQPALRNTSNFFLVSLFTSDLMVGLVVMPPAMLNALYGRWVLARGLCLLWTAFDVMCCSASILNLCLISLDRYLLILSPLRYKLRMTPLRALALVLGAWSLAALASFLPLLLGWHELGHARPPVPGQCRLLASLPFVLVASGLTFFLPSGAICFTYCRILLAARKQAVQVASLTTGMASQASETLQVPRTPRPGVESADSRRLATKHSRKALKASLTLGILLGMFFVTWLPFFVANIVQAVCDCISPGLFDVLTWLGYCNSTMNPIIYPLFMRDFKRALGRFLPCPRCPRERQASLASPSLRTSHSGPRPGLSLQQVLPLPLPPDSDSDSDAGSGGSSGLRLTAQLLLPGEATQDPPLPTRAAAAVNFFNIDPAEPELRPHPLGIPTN

Compound | Ki [nM]
COc1ccc(S(=O)(=O)n2cc(CCN(C)C)c3ccsc32)cc1 [Example 63, N,N-dimethyl-2-{[6-(4-methoxyphenyl)sulfonyl]-6H-thieno[2,3-b]pyrrol-4-yl}ethyl-amine] | 3.7 ± 0.1
NCCc1cn(S(=O)(=O)c2ccc3ccccc3c2)c2ccsc12 [Example 66] | 9.2 ± 1
COc1cccc(S(=O)(=O)n2cc(CCN)c3sccc32)c1 [Example 67, 2-{[4-(3-methoxyphenyl)sulfonyl]-4H-thieno[3,2-b]pyrrol-6-yl}ethylamine] | 2 ± 0.1
Cc1c(S(=O)(=O)n2cc(CCN)c3sccc32)sc2ccc(Cl)cc12 [Example 68] | 25 ± 1
CN(C)CCc1cn(S(=O)(=O)c2ccccc2)c2ccsc12 [Example 70] | 1.2 ± 0.1
CN(C)CCc1cn(S(=O)(=O)c2cccc(C(F)(F)F)c2)c2ccsc12 [Example 71] | 3 ± 0.2
CN(C)CCc1cn(S(=O)(=O)c2c(Cl)nc3sccn23)c2ccsc12 [Example 74] | 0.2
COc1cccc(S(=O)(=O)n2cc(CCN(C)C)c3sccc32)c1 [Example 76] | 1.3 ± 0.1
Cc1c(S(=O)(=O)n2cc(CCN(C)C)c3sccc32)sc2ccc(Cl)cc12 [Example 77] | 24.3 ± 1.5
CN(C)CCc1cn(S(=O)(=O)c2ccccc2F)c2ccsc12 [Example 78] | 2.1 ± 0.1
CN(C)CCc1cn(S(=O)(=O)c2cccc(F)c2)c2ccsc12 [Example 79] | 0.9
N,N-dimethyl-2-[6-(2-naphthylsufonyl)-6H-thieno[2,3-b]pyrrol-4-yl]ethylamine [Example 43] | 2.5 ± 0.2
N,N-dimethyl-2-{[6-(2,3-dichlorophenyl)sulfonyl]-6H-thieno[2,3-b]pyrrol-4-yl}ethyl-amine [Example 53] | 3 ± 0.1
N,N-dimethyl-2-{[6-(2,6-dichloroimidazo[2,1-b]thiazol-5-yl)sulfonyl]-6H-thieno[2,3-b]pyrrol-4-yl}ethylamine [Example 51] | 6.8 ± 0.6
N,N-dimethyl-2-{[6-(2-chloroimidazo[1,2-a]pyridin-3-yl)sulfonyl]-6H-thieno[2,3-b]pyrrol-4-yl}ethylamine [Example 50] | 2.1 ± 0.1
N,N-dimethyl-2-{[6-(2-chlorophenyl)sulfonyl]-6H-thieno[2,3-b]pyrrol-4-yl}ethylamine [Example 48] | 5.5 ± 0.5
N,N-dimethyl-2-{[6-(3-bromophenyl)sulfonyl]-6H-thieno[2,3-b]pyrrol-4-yl}-ethylamine [Example 54] | 1.7 ± 0.1
N,N-dimethyl-2-{[6-(3-chloro-2-methylphenyl)sulfonyl]-6H-thieno[2,3-b]pyrrol-4-yl}-ethylamine [Example 64] | 5.9 ± 1.4
N,N-dimethyl-2-{[6-(3-chlorophenyl)sulfonyl]-6H-thieno[2,3-b]pyrrol-4-yl}ethylamine [Example 40] | 1.6 ± 0.3
N,N-dimethyl-2-{[6-(4,5-dichlorothien-2-yl)sulfonyl]-6H-thieno[2,3-b]pyrrol-4-yl]-ethyl]-amine [Example 57] | 4.9 ± 0.3
N,N-dimethyl-2-{[6-(4-chlorophenyl)sulfonyl]-6H-thieno[2,3-b]pyrrol-4-yl}ethylamine [Example 52] | 2.6 ± 0.2
N,N-dimethyl-2-{[6-(5-bromothien-2-yl)sulfonyl]-6H-thieno[2,3-b]pyrrol-4-ylethyl}-amine [Example 55] | 1.1 ± 0.1
N,N-dimethyl-2-{[6-(5-chlorothien-2-yl)sulfonyl]-6H-thieno[2,3-b]pyrrol-4-yl]-ethyl}-amine [Example 41] | 1.3 ± 0.1
N,N-dimethyl-2-{[6-(6-chloroimidazo[2,1-b][1,3]thiazol-5-yl)sulfonyl]-6H-thieno[2,3-b]pyrrol-4-yl}ethylamine [Example 42] | 0.9 ± 0.1
N,N-dimethyl-2-{[6-(imidazo[2,1-b][1,3]thiazol-5-yl)sulfonyl]-6H-thieno[2,3-b]pyrrol-4-yl}-ethylamine [Example 49] | 1.1 ± 0.1
